Each structure is given as a SMILES string. Where two headings read alike, the source gives them in different places.

We go through six molecules from article PMC10534582, “A Pharmacokinetic Study of Sixteen Major Bioactive Components of Jinshui-Huanxian Granules in Pulmonary Fibrosis Model and Control Rats Using Orbitrap Fusion Mass Spectrometry” (Molecules, 2023).

Data set [1] can be described thus: Pharmacokinetics of JHG components in pulmonary fibrosis (PF) model rats after intragastric administration of JHGs (plasma, Orbitrap Fusion MS). Format: in vivo, Sprague Dawley (SD) rats. The conditions noted are these: for Cmax, PF model group compared with the control group: medium dose selected for comparison; for pharmacokinetic process (versus dosage): low, medium, high doses of JHGs. The protocol:
(§1) Healthy male Sprague Dawley (SD) rats of SPF grade (240 ± 20 g) were purchased from Sipeifu (Beijing, China) Biotechnology Co., Ltd. (Beijing, China), Certificate of Conformity No.: SCYK (Beijing, China) 2019-0015, Animal Quality Certificate No.: 110324220102348616. They were housed in the Animal Center of Henan University of Traditional Chinese Medicine, which passed the ethical audit, ethics number: DWLL202208003, breeding Co. 24 °C, relative humidity 50 ± 2%. The animals fasted for 12 h before the experiment and drank water freely. All feeding and experimental studies on experimental animals were in accordance with the regulations on the Management of Experimental Animals in Henan Province.
The PF model in rats was replicated by reference to the conclusion tracheal intubation method in the literature. After the rats were anesthetized, bleomycin (BLM) (5 mg/kg) was used as an induction agent and followed the tracheal intubation method. BLM solution was aspirated with a 1 mL syringe and injected into the indwelling syringe. A total of 0.3 mL of air was rapidly pushed into the syringe, the rats were immediately stroked upright so that the BLM solution was evenly distributed in both lungs. BLM was given on day 0 for modeling, then gavage was taken after day 28, with fasting without water for 12 h before sampling. The histopathological examination was performed to verify the construction of the PF model. The rats were anesthetized by the abdominal cavity, then the lung tissues were violently shocked by opening the chest, and the right lower lobe of the lung was taken and fixed in 4% formaldehyde solution, then dehydrated by sucrose gradient, paraffin-embedded, and sectioned. H&E and Masson staining were performed to observe the degree of alveolitis of lung tissue and the degree of pulmonary fibrosis, respectively. The inflammation and fibrosis of lung tissues was observed under the light microscope.
(§2) Twenty-four healthy male SD rats or PF model rats, weighing 240 ± 20 g, fasted for 12 h before the experiment and drank water freely. Both kinds of rats were randomly divided into four groups. Blank group: equal dose of water by intragastric, low dose; administration group: rats were given the equivalent human dose of JHGs by intragastric, i.e., 10.8 g of raw drug/kg/d (5.70 g/kg/d); medium-dose administration group: 2 times the human equivalent dose of JHGs by intragastric, i.e., 21.6 g of raw drug/kg/d (11.41 g/kg/d); high-dose administration group: 4 times the human equivalent dose of JHG, i.e., 43.2 g of raw drug/kg/d (22.81 g/kg/d). Blood was collected from the tail vein before and 0.083, 0.25, 0.5, 0.75, 1, 1.5, 2, 3, 4, 6, 8, 12, 18, and 24 h after dosing, respectively. A total of 0.5 mL was placed in a heparin sodium centrifuge tube. Whole blood was left for 30 min and then centrifuged in a low-temperature freezing centrifuge (4 °C, 3000 r/min) for 15 min. The upper layer of plasma was collected and stored in a refrigerator at −80 °C.
(§3) We added 50 μL of internal standard solution and 800 μL of methanol, shook for 15 min, then centrifuged at 12,000 r/min for 10 min, took the supernatant, dried in a centrifuge concentrator, added 50 μL of the initial mobile phase to the residue, dissolved, centrifuged, then separated the upper layer of the solution used as the test solution. A total of 5 μL test solution was taken into the sample for analysis. For each compound with a certain dosage, the same procedure is repeated six times in parallel. The concentration in plasma was calculated by the internal standard method.
Accucore C18 (100 mm × 2.1 mm, 2.6 μm) column at 25 °C, the mobile phase was methanol (A)-0.1% formic acid aqueous solution (B). The gradient elution program was 0–4 min (65% B-40% B), 4–5 min (40% B-40% B), 5–6 min (40% B-28% B), and 6–7 min (28% B-19% B), 7–7.5 min (19% B-10% B), 7.5–11 min (10% B-0% B), the flow rate was 0.2 mL/min, and the injection volume was 5 μL. […]

The nature of data set [2]: Pharmacokinetics of JHG components in control rats after intragastric administration of JHGs (plasma, Orbitrap Fusion MS). Format: in vivo, Sprague Dawley (SD) rats. The conditions noted are these: for pharmacokinetic process (Cmax and AUCs versus dosage): low, medium, high doses of JHGs; for Tmax / AUC(0-inf) / AUC(0-t) / half-life / MRT last / MRT inf / Cmax: male, rat, plasma, po; for MRT last: read-out: MRT(0-t); for MRT inf: read-out: MRT(0-∞); for Cmax: intragastric JHGs. How it is done:
as §1, §2, §3
Accucore C18 (100 mm × 2.1 mm, 2.6 μm) column at 25 °C, the mobile phase was methanol (A)-0.1% formic acid aqueous solution (B). The gradient elution program was 0–4 min (65% B-40% B), 4–5 min (40% B-40% B), 5–6 min (40% B-28% B), and 6–7 min (28% B-19% B), 7–7.5 min (19% B-10% B), 7.5–11 min (10% B-0% B), the flow rate was 0.2 mL/min, and the injection volume was 5 μL.
The ion source was an electrospray ionization source (ESI). Nitrogen acted as a carrier gas. The sheath gas pressure was 35 Arb. The auxiliary gas pressure was 7 Arb. The spray voltage was 3.50 kv(+), 2.50 kv(-). The ion transport tube temperature was regulated at 300 °C. Gasification temperature was 275 °C. The resolution was 50,000. The scanning mode was set as SIM mode. The optimized parameters obtained are in Table 5.
Under the established Orbitrap Fusion MS method, the pharmacokinetics of JHG in rats were studied to investigate the dynamic changes of the active components in rats. The pharmacokinetic parameters of each component in each dosing group were calculated by […] model analysis using Kinetica 5.1 (Innaphase, Waltham, MA, USA) pharmacokinetic analysis software. The pharmacotemporal curves were plotted by the plotting software. SPSS 19.0 (IBM, Armonk, NY, USA) was used to analyze all the parameters. Independent sample tests were performed after natural logarithmic transformation for AUC0–t, Cmax. The nonparametric Mann–Whitney test was applied for Tmax, t½, and MRT0–t. p < 0.05 was considered statistically significant.

Where [3] appears, read: Sprague-Dawley, after administration of JHGs, read-out: Tmax of all dosages.
[4] abbreviates: Sprague Dawley, 5.7 g/kg/day, JHGs low dose 5.70 g/kg/d.
Setting [5] is: Sprague Dawley, 11.41 g/kg/day, JHGs medium dose 11.41 g/kg/d.
Where [6] appears, read: Sprague Dawley, 22.81 g/kg/day, JHGs high dose 22.81 g/kg/d.

Consider `OC[C@H]1O[C@@H](O[C@@H]2OC=C[C@H]3[C@H](O)[C@@H]4O[C@]4(CO)[C@@H]23)[C@H](O)[C@@H](O)[C@@H]1O` [Catalpol], for which the “Cmax, PF model group compared with the control group” value in data set [1] (PF model vs control rats) is given as “significantly decreased”.

Regarding `CC(C)=CCC[C@](C)(O[C@@H]1O[C@H](CO[C@@H]2O[C@H](CO)[C@@H](O)[C@H](O)[C@H]2O)[C@@H](O)[C@H](O)[C@H]1O)[C@H]1CC[C@]2(C)[C@@H]1[C@H](O)C[C@@H]1[C@@]3(C)CC[C@H](O[C@@H]4O[C@H](CO)[C@@H](O)[C@H](O)[C@H]4O[C@@H]4O[C@H](CO)[C@@H](O)[C@H](O)[C@H]4O)C(C)(C)[C@@H]3CC[C@]12C` [Ginsenoside Rb1], the “pharmacokinetic process (Cmax and AUCs versus dosage)” value in data set [2] was “linear pharmacokinetic process”. For the same molecule, the “pharmacokinetic process (versus dosage)” value in data set [1] (PF model rats) is recorded as “linear pharmacokinetic process”. Also, the “Cmax, PF model group compared with the control group” value in data set [1] (PF model vs control rats) was “significantly decreased”. Further, in data set [1] (PF model vs control rats, p < 0.05), the “AUCs, PF model group compared with the control group” value was “significantly decreased”.

As for `CC(C)=CCC[C@](C)(O[C@@H]1O[C@H](CO[C@@H]2O[C@@H](CO)[C@H](O)[C@H]2O)[C@@H](O)[C@H](O)[C@H]1O)[C@H]1CC[C@]2(C)[C@@H]1[C@H](O)C[C@@H]1[C@@]3(C)CC[C@H](O[C@@H]4O[C@H](CO)[C@@H](O)[C@H](O)[C@H]4O[C@@H]4O[C@H](CO)[C@@H](O)[C@H](O)[C@H]4O)C(C)(C)[C@@H]3CC[C@]12C` [Ginsenoside Rc], the “pharmacokinetic process (Cmax and AUCs versus dosage)” value in data set [2] is reported as “linear pharmacokinetic process”. The Tmax in data set [2] (setting [3]) was at most 2 h. For the same molecule, in data set [1] (PF model group, medium- and high-dose groups, compared to control group), the “shape of plasma concentration–time curve” value was “double peaks phenomenon”.

Consider `COc1ccc([C@@H]2CC(=O)c3c(O)cc(O[C@@H]4O[C@H](CO[C@@H]5O[C@@H](C)[C@H](O)[C@@H](O)[C@H]5O)[C@@H](O)[C@H](O)[C@H]4O)cc3O2)cc1O` [Hesperidin], for which the “Tmax, PF model group compared with the control group” value in data set [1] (PF model vs control rats) is “decreased significantly”.

As to `COc1ccc(-c2oc3c(CC=C(C)C)c(O[C@@H]4O[C@H](CO)[C@@H](O)[C@H](O)[C@H]4O)cc(O)c3c(=O)c2O[C@@H]2O[C@@H](C)[C@H](O)[C@@H](O)[C@H]2O)cc1` [Icariin], in data set [2], the “pharmacokinetic process (Cmax and AUCs versus dosage)” value was “linear pharmacokinetic process”. Moreover, the Tmax in data set [2] (setting [3]) was at most 2 h; in data set [1] (male, Sprague-Dawley, rat, plasma, po, PF model rats, after administration of JHGs, read-out: Tmax of all dosages), at most 2 h.

Regarding `C[C@@H]1O[C@@H](O[C@@H]2[C@@H](O)[C@H](OCCc3ccc(O)c(O)c3)O[C@H](COC(=O)/C=C/c3ccc(O)c(O)c3)[C@H]2O)[C@H](O)[C@H](O)[C@H]1O` [Isoacteoside], the Clearances in data set [2] (JHGs high dose 22.81 g/kg/d) stood at 18.7 ± 3.83 mL/min/kg; in data set [2] (JHGs low dose 5.70 g/kg/d) it was 15.2 ± 3 mL/min/kg; in data set [2] (JHGs medium dose 11.41 g/kg/d), 15.7 ± 1.7 mL/min/kg. The Vss in data set [2] (JHGs high dose 22.81 g/kg/d) was found to be 9.42 ± 1.03 L; in data set [2] (JHGs low dose 5.70 g/kg/d), 8.97 ± 2.22 L; in data set [2] (JHGs medium dose 11.41 g/kg/d) it was 9.67 ± 3.39 L. In addition, the “pharmacokinetic process (Cmax and AUCs versus dosage)” value in data set [2] was “linear pharmacokinetic process”. In addition, the AUC(0-inf) was determined as 35.8 ± 5.5 ng·h/mL in data set [2] (setting [4]), 61.5 ± 8.17 ng·h/mL in data set [2] (setting [5]) and 104 ± 22.4 ng·h/mL in data set [2] (setting [6]). The AUC(0-t) amounted to 32.2 ± 4.75 ng·h/mL in data set [2] (setting [4]), 54.9 ± 7.53 ng·h/mL in data set [2] (setting [5]) and 96.4 ± 18.1 ng·h/mL in data set [2] (setting [6]). For the same molecule, the figures for the half-life in data set [2] (setting [4]), in data set [2] (setting [5]) and in data set [2] (setting [6]) were 6.86 ± 0.48 h, 8.24 ± 4.54 h and 6.1 ± 0.77 h, respectively. Moreover, the results for the MRT last in data set [2] (setting [4]), in data set [2] (setting [5]) and in data set [2] (setting [6]) were 7.15 ± 0.14 h, 7.03 ± 0.29 h and 6.64 ± 0.33 h, respectively. Besides, the figures for the MRT inf in data set [2] (setting [4]), in data set [2] (setting [5]) and in data set [2] (setting [6]) were 9.81 ± 0.84 h, 10.4 ± 4.06 h and 8.58 ± 0.98 h, respectively. Also, the Tmax is 1 h in data set [2] (Sprague Dawley, 5.7 g/kg/day, JHGs low dose 5.70 g/kg/d, read-out: Tmax); 2 h in data set [2] (Sprague Dawley, 11.41 g/kg/day, JHGs medium dose 11.41 g/kg/d, read-out: Tmax); 3 h in data set [2] (Sprague Dawley, 22.81 g/kg/day, JHGs high dose 22.81 g/kg/d, read-out: Tmax). In addition, the Cmax in data set [2] (Sprague Dawley, 5.7 g/kg/day, low dose 5.70 g/kg/d, n=6 (1st of 3 stacked values)) is 5.67 ± 1 ng/mL; in data set [2] (Sprague Dawley, 11.41 g/kg/day, medium dose 11.41 g/kg/d, n=6 (2nd of 3 stacked values)), 9.31 ± 1.05 ng/mL; in data set [2] (Sprague Dawley, 22.81 g/kg/day, high dose 22.81 g/kg/d, n=6 (3rd of 3 stacked values)), 18.4 ± 1.98 ng/mL. Further, the “pharmacokinetic process (versus dosage)” value in data set [1] (PF model rats) is reported as “linear pharmacokinetic process”. For the same molecule, the “Tmax, PF model group compared with the control group” value in data set [1] (PF model vs control rats) was “increased about three times”.
